Where “and” joins values, the source holds several entries; their conditions need not be identical. Equal values may be shown once. Inconclusive results and toxic doses are left out.
Tested on: BDF1 mice, B16 melanoma ip, median survival T/C
Assay: NCI In Vivo Anticancer Drug Screen. Data for tumor model B16 Melanoma (intraperitoneal) in B6D2F1 (BDF1) mice
Settings: endpoint: median survival time, higher = longer survival
Outline: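 Tumor-bearing mice received test compound or vehicle. Survival or tumor size was then measured in both groups. The treated-group figure was divided by the control-group figure.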

[1] = dose: 100.0 mg/kg/injection, schedule: Q01DX009 (ip), vehicle: Klucel (hydroxypropylcellulose) (HPC)
[2] = dose: 200.0 mg/kg/injection, schedule: Q01DX009 (ip), vehicle: Klucel (hydroxypropylcellulose) (HPC)
[3] = dose: 400.0 mg/kg/injection, schedule: Q01DX009 (ip), vehicle: Klucel (hydroxypropylcellulose) (HPC)
[4] = dose: 50.0 mg/kg/injection, schedule: Q01DX009 (ip), vehicle: saline
[5] = dose: 200.0 mg/kg/injection, schedule: Q01DX009 (ip), vehicle: saline
[6] = dose: 25.0 mg/kg/injection, schedule: Q01DX009 (ip), vehicle: saline with Tween-80
[7] = dose: 50.0 mg/kg/injection, schedule: Q01DX009 (ip), vehicle: saline with Tween-80
[8] = dose: 100.0 mg/kg/injection, schedule: Q01DX009 (ip), vehicle: saline with Tween-80
[9] = dose: 200.0 mg/kg/injection, schedule: Q01DX009 (ip), vehicle: saline with Tween-80
[10] = dose: 400.0 mg/kg/injection, schedule: Q01DX009 (ip), vehicle: saline with Tween-80
[11] = dose: 25.0 mg/kg/injection, schedule: Q01DX009 (ip), vehicle: saline
[12] = dose: 12.5 mg/kg/injection, schedule: Q01DX009 (ip), vehicle: saline with Tween-80

COc1cc([C@@H]2c3cc4c(cc3[C@@H](OC3OC5COC(C)OC5C(O)C3O)[C@H]3COC(=O)[C@H]23)OCO4)cc(OC)c1O (stereo not given in full)
T/C (dose: 1.73 mg/kg/injection, schedule: Q01DX009 (ip), vehicle: clinical formulation): 206 % of control | T/C (dose: 2.0 mg/kg/injection, schedule: Q01DX009 (ip), vehicle: Klucel (hydroxypropylcellulose) (HPC)): 150 % of control | T/C (dose: 2.88 mg/kg/injection, schedule: Q01DX009 (ip), vehicle: clinical formulation): 240 % of control | T/C (dose: 4.0 mg/kg/injection, schedule: Q01DX009 (ip), vehicle: Klucel (hydroxypropylcellulose) (HPC)): 111 % of control | T/C (dose: 4.8 mg/kg/injection, schedule: Q01DX009 (ip), vehicle: clinical formulation): 240 % of control | T/C (dose: 5.0 mg/kg/injection, schedule: Q01DX009 (ip), vehicle: saline): 252 % of control | T/C (dose: 5.0 mg/kg/injection, schedule: Q04DX003 (ip), vehicle: suspension in saline): 202 % of control | T/C (dose: 8.0 mg/kg/injection, schedule: Q01DX009 (ip), vehicle: Klucel (hydroxypropylcellulose) (HPC)): 276 % of control | T/C (dose: 8.0 mg/kg/injection, schedule: Q01DX009 (ip), vehicle: clinical formulation): 259 % of control | T/C (dose: 8.0 mg/kg/injection, schedule: Q04DX003 (ip), vehicle: suspension in saline): 180 % of control | T/C (dose: 10.0 mg/kg/injection, schedule: Q01DX009 (ip), vehicle: saline): 285 % of control | T/C (dose: 10.0 mg/kg/injection, schedule: Q04DX003 (ip), vehicle: suspension in saline): 208 % of control | T/C (dose: 13.3 mg/kg/injection, schedule: Q01DX009 (ip), vehicle: clinical formulation): 53 % of control | T/C (dose: 16.0 mg/kg/injection, schedule: Q04DX003 (ip), vehicle: suspension in saline): 207 % of control | T/C (dose: 20.0 mg/kg/injection, schedule: Q04DX003 (ip), vehicle: suspension in saline): 236 % of control | T/C (dose: 32.0 mg/kg/injection, schedule: Q04DX003 (ip), vehicle: suspension in saline): 85 % of control | T/C (dose: 40.0 mg/kg/injection, schedule: Q04DX003 (ip), vehicle: suspension in saline): 241 % of control | T/C (dose: 64.0 mg/kg/injection, schedule: Q04DX003 (ip), vehicle: suspension in saline): 63 % of control

COc1ccc(C(CC(=O)c2ccc3c(c2)OCO3)C(=O)O)cc1OC (stereo not given)
T/C [1]: 96 % of control | T/C [2]: 100 % of control | T/C [3]: 100 % of control

[N-]=[N+]=CC(=O)NCC(=O)NN
T/C (dose: 50.0 mg/kg/injection, schedule: Q01DX009 (ip), vehicle: other): 111 % of control | T/C [4]: 110 % of control | T/C (dose: 100.0 mg/kg/injection, schedule: Q01DX009 (ip), vehicle: other): 106 % of control | T/C (dose: 100.0 mg/kg/injection, schedule: Q01DX009 (ip), vehicle: saline): 113 % of control | T/C (dose: 200.0 mg/kg/injection, schedule: Q01DX009 (ip), vehicle: other): 120 % of control | T/C [5]: 123 % of control | T/C (dose: 300.0 mg/kg/injection, schedule: Q01DX009 (ip), vehicle: other): 166 % of control | T/C (dose: 400.0 mg/kg/injection, schedule: Q01DX009 (ip), vehicle: saline): 150 % of control | T/C (dose: 500.0 mg/kg/injection, schedule: Q01DX009 (ip), vehicle: other): 86 % of control | T/C (dose: 600.0 mg/kg/injection, schedule: Q02DX005 (ip), vehicle: other): 156 % of control

Nc1ccc(S(N)(=O)=O)cc1
T/C [6]: 97 % of control and 99 % of control | T/C [7]: 94 % of control and 102 % of control | T/C [8]: 91 % of control and 100 % of control | T/C [9]: 96 % of control and 102 % of control | T/C [10]: 99 % of control and 105 % of control

CC1=CC(=O)N(NC(N)=O)C1=O
T/C (dose: 12.5 mg/kg/injection, schedule: Q01DX009 (ip), vehicle: saline): 107 % of control | T/C [11]: 96 % of control | T/C [4]: 87 % of control

O=C(NNc1ccccc1)c1ccccc1
T/C (dose: 6.25 mg/kg/injection, schedule: Q01DX009 (ip), vehicle: Klucel (hydroxypropylcellulose) (HPC)): 97 % of control | T/C (dose: 12.5 mg/kg/injection, schedule: Q01DX009 (ip), vehicle: Klucel (hydroxypropylcellulose) (HPC)): 97 % of control | T/C (dose: 25.0 mg/kg/injection, schedule: Q01DX009 (ip), vehicle: Klucel (hydroxypropylcellulose) (HPC)): 93 % of control | T/C (dose: 50.0 mg/kg/injection, schedule: Q01DX009 (ip), vehicle: Klucel (hydroxypropylcellulose) (HPC)): 91 % of control

c1ccc(-c2nn3c(-c4ccccc4)nnc3o2)cc1
T/C [8]: 93 % of control | T/C [9]: 92 % of control | T/C [10]: 92 % of control

CC(CN(C)C)CN1c2ccccc2Sc2ccccc21 (stereo not given)
T/C [12]: 104 % of control | T/C [6]: 101 % of control

CC(C)C[C@H](O)C(=O)O
T/C [11]: 104 % of control | T/C [4]: 110 % of control

Nc1nc(-c2ccccc2N=NN2CCCCC2)nc2ccccc12
T/C (dose: 50.0 mg/kg/injection, schedule: Q04DX003 (ip), vehicle: Klucel (hydroxypropylcellulose) (HPC)): 97 % of control | T/C (dose: 100.0 mg/kg/injection, schedule: Q04DX003 (ip), vehicle: Klucel (hydroxypropylcellulose) (HPC)): 91 % of control | T/C (dose: 200.0 mg/kg/injection, schedule: Q04DX003 (ip), vehicle: Klucel (hydroxypropylcellulose) (HPC)): 113 % of control

CCCCNC(=O)Nc1c(C)cccc1C
T/C (dose: 100.0 mg/kg/injection, schedule: Q01DX009 (ip), vehicle: gum acacia): 95 % of control | T/C (dose: 200.0 mg/kg/injection, schedule: Q01DX009 (ip), vehicle: gum acacia): 94 % of control

C=C1[C@@H](O)[C@]2(O)OC[C@@]34[C@H]1[C@@H](OC(=O)C(C)CC)C(=O)O[C@@H]3C[C@H]1C(C)=CC(=O)[C@@H](O)[C@]1(C)[C@@H]24 (stereo not given in full)
T/C (dose: 0.5 mg/kg/injection, schedule: Q01DX009 (ip), vehicle: saline with Tween-80): 116 % of control | T/C (dose: 1.0 mg/kg/injection, schedule: Q01DX009 (ip), vehicle: saline with Tween-80): 118 % of control

Cc1c(O)c2c(c(O)c1Cc1ccc(CN)cc1)C(=O)c1ccccc1C2=O
T/C (dose: 0.78 mg/kg/injection, schedule: Q01DX009 (ip), vehicle: water): 109 % of control | T/C (dose: 1.56 mg/kg/injection, schedule: Q01DX009 (ip), vehicle: water): 109 % of control | T/C (dose: 3.13 mg/kg/injection, schedule: Q01DX009 (ip), vehicle: water): 98 % of control | T/C (dose: 6.25 mg/kg/injection, schedule: Q01DX009 (ip), vehicle: water): 93 % of control

O=C(NCCCl)NCCCl
T/C (dose: 5.0 mg/kg/injection, schedule: Q01DX009 (ip), vehicle: Klucel (hydroxypropylcellulose) (HPC)): 94 % of control | T/C (dose: 10.0 mg/kg/injection, schedule: Q01DX009 (ip), vehicle: Klucel (hydroxypropylcellulose) (HPC)): 102 % of control | T/C [12]: 95 % of control | T/C (dose: 20.0 mg/kg/injection, schedule: Q01DX009 (ip), vehicle: Klucel (hydroxypropylcellulose) (HPC)): 88 % of control | T/C [6]: 95 % of control | T/C (dose: 40.0 mg/kg/injection, schedule: Q01DX009 (ip), vehicle: Klucel (hydroxypropylcellulose) (HPC)): 91 % of control | T/C [7]: 100 % of control | T/C (dose: 80.0 mg/kg/injection, schedule: Q01DX009 (ip), vehicle: Klucel (hydroxypropylcellulose) (HPC)): 102 % of control | T/C (dose: 160.0 mg/kg/injection, schedule: Q01DX009 (ip), vehicle: Klucel (hydroxypropylcellulose) (HPC)): 94 % of control | T/C [9]: 95 % of control | T/C (dose: 320.0 mg/kg/injection, schedule: Q01DX009 (ip), vehicle: Klucel (hydroxypropylcellulose) (HPC)): 91 % of control | T/C [10]: 102 % of control

Cc1cnccc1Br
T/C (dose: 25.0 mg/kg/injection, schedule: Q01DX009 (ip), vehicle: water): 96 % of control | T/C (dose: 50.0 mg/kg/injection, schedule: Q01DX009 (ip), vehicle: water): 97 % of control

CN(CCCN(C)CCC1CCCCC1)CCC1CCCCC1
T/C [12]: 92 % of control | T/C [6]: 95 % of control

NCCc1c[nH]c2ccccc12
T/C (dose: 100.0 mg/kg/injection, schedule: Q04DX003 (ip), vehicle: saline): 120 % of control | T/C (dose: 200.0 mg/kg/injection, schedule: Q04DX003 (ip), vehicle: saline): 112 % of control

CC(C)NNC(=O)C(C)O (stereo not given)
T/C [11]: 118 % of control | T/C [4]: 102 % of control | T/C [5]: 102 % of control

CCCCCCCC(=O)CCCC
T/C [1]: 106 % of control | T/C [2]: 106 % of control | T/C [3]: 94 % of control
